US12241902B2, “Probes for detection of copper” (The Regents of the University of California, priority 2019, dated 2025)

Tests used:
[1] = Oxidation state specificity of the ratiometric response
Protocol: (A) Changes in corrected emission spectra of FCP-1 (5 μM) in aqueous buffer solution. […] (B) Corrected emission spectra of FCP-1 measured at various concentrations. […] (D) Changes in F526/F576 ratio of FCP-1 (5 μM) towards various biologically relevant metal ions, as well as cobalt(II)-containing vitamin B12. Black bars represent the ratiometric emission response observed upon addition of competing metal ions (1 mM for Na^+, K^+, Mg^2+ and Ca^2+, and 10 μM for all the other d-block metal ions as well vitamin B12) after 15 min. Red bars represent the ratiometric emission response upon subsequent addition of 10 μM of Cu(I) after 15 min. (E) Emission spectra and (F) F526/F576 emission ratio of FCP-1 (5 μM) with addition of Cu(II) (10 μM), Cu(II) (10 μM)+GSH (2 mM), or Cu(I) (10 μM)+GSH (2 mM) after 15 min. All spectra were acquired in aqueous buffer (PBS with 2 mM GSH and 40 vol % PEG-400) with λex=458 nm.
UV-vis absorption and emission measurements. FCP-1 stock solution in DMSO (5 mM) was prepared, aliquoted and stored at […]. For each spectroscopic measurement, a fresh aliquot was diluted to 500 μM by DMSO and further diluted with PBS containing 2 mM GSH/PEG-400 mixture (3:2, v/v) to prepare the sensing solution with 5 μM of FCP-1. […] Photoluminescence quantum yield (PLQY) was determined using fluorescein in 0.1 M NaOH solution (0.95; λex=496 nm). […]

[2] = tested on: labile Cu(I) in Ctr1^+/+ MEFs; assay: Confocal fluorescence imaging of labile Cu(I) in Ctr1+/+ MEFs; format: cell-based, mouse
Protocol: (§1) (A) Confocal fluorescence microscopy images of Ctr1^+/+ MEFs and Ctr1^−/− MEFs treated with solvent control, CuCl2 (100 or 300 μM) or BCS (500 μM) in complete medium for 8 h, washed with complete medium and PBS, incubated with FCP-1 (5 μM) in DPBS for 45 min, and then imaged with λex=458 nm. (B) Average cellular ratiometric emission ratios of FCP-1, Fgreen/Forange, as determined from experiments performed in triplicate. (C) Total cellular ^63Cu levels were determined by ICP-MS experiments (with normalization of different cell numbers by total cellular ^31P level). (D) Confocal fluorescence microscopy images of Ctr1^+/+ MEFs and Ctr1^−/− MEFs incubated with FL-TPA (5 μM) in DPBS for 45 min. The cells were then imaged with λex=488 nm. (E) Average cellular fluorescence intensity of FL-TPA, FFL-TPA, determined from experiments performed in triplicate with λex=488 nm. Error bars denote SD (n=3). *p<0.05, **p<0.01 and ***p<0.001.
(§2) Cell culture. Following cell cultures were grown: Human embryonic kidney (HEK 293T) cells were maintained in Dulbecco's Modified Eagle Medium (DMEM) supplemented with 10 vol % fetal bovine serum (FBS), 1 vol % GlutaMax (Gibco) and 1 vol % non-essential amino acids (NEAA, Gibco). Ctrl1^+/+ and Ctr1^−/− MEF cells were maintained in DMEM with 10 vol % FBS, 1 vol % non-essential amino acids, 1 vol % sodium pyruvate and 0.1 vol % 2-mercaptoethanol or DMEM supplemented with 10 vol % FBS and 1× Penicillin-Streptomycin. Human cervical epithelial carcinoma (HeLa) was maintained in DMEM medium supplemented with 1 vol % GlutaMAX and 10 vol % FBS. All cells were incubated in 5% CO2 humidified air and subcultured at 80% confluence.
Confocal fluorescence microscopy imaging. For confocal fluorescence imaging experiments of HEK293T, MEF Ctr1^+/+ and Ctr1^−/− and HeLa cells, the cells were plated on 8-well Lab Tek borosilicate chambered coverglass slides (Nunc), and allowed to grow to ca. 60% confluency before performing the cell imaging experiments. The confocal imaging was performed with a Zeiss laser scanning microscope 710 with 20× or 63× oil-immersion objective lens using Zen 2009 software (Carl Zeiss). FCP-1 was excited with 458 nm with an Ar laser, and the emissions were collected using a META detector between 465 and 541 nm (Fgreen), and between 559 and 710 nm (Forange). DRAQ-5 was excited with a 633 nm He Ne laser, and its emission was collected using a META detector between 661 and 759 nm. Image analysis was performed using ImageJ, with ratiometric images generated by the Ratio Plus plugin of ImageJ. For quantification, a threshold value was set as background and the average intensity of the whole image was measured by ImageJ. All experiments were performed in triplicate, and statistical analyses were performed with a two-tailed Student's t-test (MS excel).
Having established that FCP-1 is sensitive to endogenous pools of labile Cu(I) under basal conditions and can respond to changes in labile Cu(I) pools upon pharmacological copper supplementation and/or depletion, the application of FCP-1 to visualize alterations in endogenous labile Cu(I) pools through genetic manipulation was explored. To this end, comparative FCP-1 imaging was performed in mouse embryonic fibroblast cells that are either Cu-replete (Ctr1^+/+ MEFs) or Cu-deficient (Ctr1^−/− MEFs) through knockout of the high-affinity copper transporter CTR1 (64-66).
Complementary ICP-MS measurements confirm that total copper levels in Ctr1^−/− MEFs are lower than Ctr1^+/+ MEFs (FIG. 12C). […]

[3] = tested on: labile Cu(I) in Ctr1^−/− MEFs; assay: Confocal fluorescence imaging of labile Cu(I) in Ctr1-/- MEFs; format: cell-based, mouse
Protocol: as §1
as §2, with “All cells were incubated in 5% CO2 humidified air and subcultured at 80% confluence.” left out
Confocal fluorescence microscopy imaging. For confocal fluorescence imaging experiments of HEK293T, MEF Ctr1^+/+ and Ctr1^−/− and HeLa cells, the cells were plated on 8-well Lab Tek borosilicate chambered coverglass slides (Nunc), and allowed to grow to ca. 60% confluency before performing the cell imaging experiments. […] For quantification, a threshold value was set as background and the average intensity of the whole image was measured by ImageJ. […]

Question: What does the source list for `CC[N+](CC)=c1ccc2c(-c3ccccc3C(=O)O)c3ccc(N4CCN(Cc5cccc(CN(Cc6ccccn6)Cc6cccc(COc7ccc8c(-c9ccccc9C(=O)OC)c9ccc(=O)cc-9oc8c7)n6)n5)CC4)cc3oc-2c1` [FCP-1]?
Answer: emission spectra and F526/F576 ratio with Cu(II) and excess glutathione ([1]; Cu(II) 10 μM + GSH 2 mM, compared with Cu(I) 10 μM + GSH 2 mM): identical to that obtained by treating FCP-1 with Cu(I) and excess glutathione; ratiometric response to Cu(II) ([1]; Cu(II) 10 μM, 15 min): does not respond ratiometrically; cellular viability by nuclear stain DRAQ5 ([2]; Ctr1+/+ MEFs (FIG. 13)): cellular viability was maintained; Fgreen/Forange ratio after BCS ([2]; Ctr1+/+ MEFs, BCS): reduction in Fgreen/Forange ratio; Fgreen/Forange ratio after CuCl2 ([2]; Ctr1+/+ MEFs, varying concentrations of CuCl2): dose-dependent increase; Fgreen/Forange ratio, Ctr1+/+ MEFs compared to Ctr1−/− MEFs ([2]; basal, FCP-1 5 μM, p<0.01): higher Fgreen/Forange ratios; cellular viability by nuclear stain DRAQ5 ([3]; Ctr1−/− MEFs (FIG. 14)): cellular viability was maintained; Fgreen/Forange ratio after CuCl2 ([3]; Ctr1−/− MEFs incubated with CuCl2): no statistically significant changes; Fgreen/Forange ratio after BCS ([3]; Ctr1−/− MEFs, BCS (500 μM)): reduction in Fgreen/Forange ratio
